This is an account of results in PMC8003278, “Structure-Based Virtual Screening and De Novo Design of PIM1 Inhibitors with Anticancer Activity from Natural Products” (Pharmaceuticals, 2021).

One assay has as its target T1, PIM1 kinase (Homo sapiens, UniProt P11309).
T1 construct: purchased Reaction Biology Corp. (Malvern, PA, USA), contract assay service
The assay is described as follows: radiometric ([γ-33P]-ATP) kinase assay, PIM1 enzyme inhibition (Reaction Biology Corp.). The assay is classed as biochemical. An excerpt: Among a total of 42,613 natural products in the chemical database, 31,874 molecules that satisfied the physicochemical property criteria for a potential drug candidate were screened through docking simulations in the ATP-binding site of PIM1 kinase, as illustrated in Figure 1. Using the modified binding free energy function involving an accurate molecular dehydration term, 100 top-scoring compounds were selected as the virtual hits, all of which were commercially available from a compound vendor (InterBioScreen Ltd., https://www.ibscreen.com, accessed on 15 October 2019). All these putative inhibitors were tested for the presence of the inhibitory activity against PIM1 kinase with in vitro radiometric ([γ-^33P]-ATP) kinase assays (Reaction Biology Corp., Malvern, PA, USA).
The inhibitory activities of all compounds with respect to PIM1 were measured by Reaction Biology Corp. (Malvern, PA, USA) using radiometric kinase assays ([γ-^33P]-ATP). Briefly, the enzymatic reaction mixtures contained an artificial substrate peptide, poly-Glu-Tyr (4:1), in freshly prepared base reaction buffer (20 mM hydroxyethyl piperazine ethane sulfonic acid (HEPES) of pH 7.5, 10 mM MgCl2, 1 mM ethylene glycol tetraacetic acid (EGTA), 0.02% Brij-35, 0.02 mg/mL bovine serum albumin (BSA), 0.1 mM Na3VO4, 2 mM dithiothreitol (DTT), and 1% DMSO). PIM1 kinase was delivered into the substrate solution and gently mixed. Each inhibitor in 100% DMSO in a serial dilution was then delivered to the reaction mixture using the acoustic dispensing system (Echo550; nanoliter range). To initiate the enzymatic reaction, ^33P-ATP with a specific activity of 10 μCi/μL was added into the reaction mixture, which was further incubated for 2 h at room temperature. Radioactivity was then monitored by the filter-binding method after the reactions were spotted onto P81 ion exchange paper, and the filters were washed extensively in 0.75% phosphoric acid. Kinase activity data were expressed as the percent remaining kinase activity in test samples compared to vehicle (dimethyl sulfoxide) reactions. IC50 values and curve fits were calculated with Prism Software (GraphPad Software) at 10 different concentrations in duplicate.

Assay [1] deals with T47D human breast cancer cell lines. Description: MTT cell proliferation inhibition assay in T47D cells. The assay is classed as cell-based. Particulars: antiproliferative activity in T47D cell lines, mean ± standard deviation of the two experiments. How it is done:
To assess the anticancer activities of these new PIM1 inhibitors, we carried out cell-based assays for 5, 8, 14, 15, and 16 using T47D human cancer cell lines, which represented breast cancer caused by PIM1 [48]. The natural product wortmannin served as a positive control in this cellular study. Cell viabilities were measured at varying inhibitor concentrations with a 3-(4,5-dimethylthiazol-2-yl)-2,5-diphenyltetrazolium bromide (MTT) assay. […]. However, it should be noted that the inhibitory activities of 14–16 decrease from the nanomolar level in enzyme inhibition assays (Table 2) to the micromolar level in cell proliferation assays. The poor cell permeability can be invoked to explain the reduced biochemical potency in cell-based assays. In order for the new PIM1 inhibitors to become a good lead compound for the development of anticancer medicines, improving cellular permeability using further structural modifications is required.
The T47D human breast cancer cell lines were purchased from Korean Cell Line Bank (KCLB, Seoul, Korea). T47D cells were then cultured in Roswell Park Memorial Institute 1640 (RPMI-1640) medium with 10% fetal bovine serum (FBS) and 1% penicillin/streptomycin, and maintained at 37 °C in a CO2 incubator with a controlled humidified atmosphere comprising 95% air and 5% CO2. All the cell culture reagents were purchased from Thermo Fisher Scientific.
Cell viability was measured with 3-(4,5-dimethylthiazol-2-yl)-2,5-diphenyltetrazolium bromide (MTT) assay using the natural product wortmannin as a positive control. At first, T47D cells were plated at a density of 3–5 × 10^3 cells/well in 96-well plates for 24 h and then treated with either DMSO as a control or with varying concentrations of the PIM1 inhibitors (5, 8, 14, 15, and 16). The final concentration of DMSO in the medium was <0.1% (v/v). After the incubation of cells for 48 h, 20 μL of MTT solution (5 mg/mL) was added to each well for 4 h at 37 °C. The formazan crystals formed during the mixing were dissolved in DMSO (100 μL/well) by shaking for 5 min. Duplicate wells were used for each analysis although triplicate measurements would be more reliable. After 72 h, the absorbance of each solution was measured with a microplate reader at 540 nm to calculate the antiproliferative activity of the PIM1 inhibitors. Finally, the IC50 values were measured from the dose–response curves.

Setting [2] is: PIM1, natural-product inhibitors, mean ± standard deviation of the two experiments.
The mark [3] stands for this setting: PIM1 kinase, derivatives of 2, mean ± standard deviation of the two experiments.

What is called IC50 is the concentration at which inhibition is half-maximal. Low values mean higher potency, high ones lower potency.

T1 sequence (P11309 whole entry): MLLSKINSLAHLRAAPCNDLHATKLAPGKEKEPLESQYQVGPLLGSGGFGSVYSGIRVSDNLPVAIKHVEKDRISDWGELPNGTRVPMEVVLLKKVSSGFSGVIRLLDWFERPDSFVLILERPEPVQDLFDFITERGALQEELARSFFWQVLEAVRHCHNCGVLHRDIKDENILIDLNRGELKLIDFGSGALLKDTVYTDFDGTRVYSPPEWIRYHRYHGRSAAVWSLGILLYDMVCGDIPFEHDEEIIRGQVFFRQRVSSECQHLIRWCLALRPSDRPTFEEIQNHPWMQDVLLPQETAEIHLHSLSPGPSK

`COc1c(O)c(O)c2oc(-c3ccccc3)cc(=O)c2c1OC` [Compound 1]: half-maximal inhibition on PIM1 kinase (setting [2]) (IC50) was put at 580 ± 200 nM. `COc1ccc(/C=C2\Oc3cc(O)ccc3C2=O)cc1` [Compound 2]: the IC50 against PIM1 kinase (setting [2]) came out at 1200 ± 100 nM; on PIM1 kinase (setting [3]), 1190 ± 70 nM.

On PIM1 kinase (setting [2]), `O=C1c2c(O)cc(O)cc2O[C@H](c2ccc(O)c(O)c2)[C@H]1O` [Compound 3] had a half-maximal inhibitory concentration (IC50) of 4000 ± 600 nM. Consider `O=c1c(-c2ccc(OC3OC(CO)C(O)C(O)C3O)cc2)coc2cc(O)cc(O)c12` (stereo not shown) [Compound 4], for which, on PIM1 kinase (setting [2]), the midpoint of inhibition, the IC50, lay at 20200 ± 2000 nM. For the compound `COc1cccc(/C=C2\Oc3cc(O)ccc3C2=O)c1` [Compound 5, (Z)-6-Hydroxy-2-(3-methoxybenzylidene)benzofuran-3(2H)-one], the IC50 against PIM1 kinase (setting [3]) worked out at 260 ± 50 nM; in assay [1] it was 15.1 ± 1 µM. The compound `COc1cccc(/C=C2\Oc3cc(O)cc(O)c3C2=O)c1` [Compound 6, (Z)-4,6-Dihydroxy-2-(3-methoxybenzylidene)benzofuran-3(2H)-one] returned an IC50 on PIM1 kinase (setting [3]) of 310 ± 20 nM. The same measure, in the same setting: under `O=C1/C(=C/c2cccc(Cl)c2)Oc2cc(O)cc(O)c21` [Compound 7, (Z)-2-(3-Chlorobenzylidene)-4,6-dihydroxybenzofuran-3(2H)-one] stands 1450 ± 100 nM.

`COc1cc(/C=C2\Oc3cc(O)ccc3C2=O)ccc1Cl` [Compound 8, (Z)-2-(4-Chloro-3-methoxybenzylidene)-6-hydroxybenzofuran-3(2H)-one]: the IC50 against PIM1 kinase (setting [3]) was found to be 200 ± 30 nM; in assay [1], 11.2 ± 2 µM. At PIM1 kinase (setting [3]), `COc1cc(/C=C2\Oc3cc(O)cc(O)c3C2=O)ccc1Cl` [Compound 9, (Z)-2-(4-Chloro-3-methoxybenzylidene)-4,6-dihydroxybenzofuran-3(2H)-one] had an IC50 of 150 ± 10 nM. Consider `O=C1/C(=C/c2ccc(Cl)c(Cl)c2)Oc2cc(O)cc(O)c21` [Compound 10, (Z)-2-(3,4-Dichlorobenzylidene)-4,6-dihydroxybenzofuran-3(2H)-one], for which inhibition on PIM1 kinase (setting [3]) was half-maximal at 680 ± 80 nM (IC50).

For `COc1ccc(/C=C2\Oc3cc(O)ccc3C2=O)cn1` [Compound 11, (Z)-6-Hydroxy-2-((6-methoxypyridin-3-yl)methylene)benzofuran-3(2H)-one], the “decrease of inhibitory activity by a factor” value at PIM1 kinase (PIM1, relative to 5 (phenyl ring replaced with pyridine)) amounted to 20. At PIM1 kinase (setting [3]), this compound showed an IC50 of 5230 ± 400 nM.

With `O=C1/C(=C/c2ccc[nH]c2=O)Oc2cc(O)cc(O)c21` [Compound 12, (Z)-3-((4,6-Dihydroxy-3-oxobenzofuran-2(3H)-ylidene)methyl)pyridin-2(1H)-one], the half-maximal inhibitory concentration (IC50) against PIM1 kinase (setting [3]) stood at 5860 ± 1000 nM. As to `O=C1/C(=C/c2cc3ccccc3[nH]c2=O)Oc2cc(O)cc(O)c21` [Compound 13, (Z)-3-((4,6-Dihydroxy-3-oxobenzofuran-2(3H)-ylidene)methyl)quinolin-2(1H)-one], the IC50 against PIM1 kinase (setting [3]) stood at 1730 ± 300 nM. For the compound `COc1cc(O)c2c(c1)O/C(=C\c1cc(-c3ccncc3)[nH]n1)C2=O` [Compound 14], the IC50 turned out to be 18 ± 2 nM against PIM1 kinase (setting [3]) and 5.9 ± 1 µM in assay [1].

Regarding `COc1cc(O)c2c(c1)O/C(=C\c1c[nH]c3ncc(Cl)cc13)C2=O` [Compound 15, (Z)-2-((5-Chloro-1H-pyrrolo[2,3-b]pyridin-3-yl)methylene)-4-hydroxy-6-methoxybenzofuran-3(2H)-one], the IC50 worked out at 8.8 ± 2 nM on PIM1 kinase (setting [3]) and 3.2 ± 0.6 µM in assay [1]. For the compound `O=C1/C(=C/c2c[nH]c3nc(Cl)ncc23)Oc2cc(O)cc(O)c21` [Compound 16, (Z)-2-((2-Chloro-7H-pyrrolo[2,3-d]pyrimidin-5-yl)methylene)-4,6-dihydroxybenzofuran-3(2H)-one], the IC50 on PIM1 kinase (PIM1) was determined as 7 nM; on PIM1 kinase (setting [3]), 6.7 ± 3 nM; in assay [1], 4.5 ± 0.8 µM.

`COC[C@H]1OC(=O)c2coc3c2[C@@]1(C)C1=C(C3=O)[C@@H]2CCC(=O)[C@@]2(C)C[C@H]1OC(C)=O` [wortmannin, reference compound]: in assay [1], the IC50 worked out at 3.4 ± 0.2 µM.
